Experimental data from patent US20080063643A1, “Peptide Derived From Hepatitis C Virus” (priority 2003, published 2008).

System: peptide-specific IgG in the serum
Test: ELISA of peptide-specific IgG in sera of HCV patients and healthy donors (Example 1)
Assay type: binding, human
Details: ELISA, cut-off value 1.83; for Healthy donors (n = 10) Positive n: number of 10 healthy donors with serum IgG reactive to the peptide; for HCV patients (n = 12) Positive n: number of 12 HCV patients with serum IgG reactive to the peptide; for Healthy donors (n = 10) Positive %: share of 10 healthy donors with serum IgG reactive to the peptide; for HCV patients (n = 12) Positive %: share of 12 HCV patients with serum IgG reactive to the peptide
Procedure: Synthetic peptides having an HLA-A2-binding motif or an HLA-A24-binding motif from a conserved region of HCV genotype 1b protein were used in this study (Table 1). A peptide derived from HIV having an HLA-A2-binding motif was used as a negative control. All of these peptides were purchased from a commercially supplier. The purity was analyzed by reverse-phase high-pressure liquid chromatography and found to be 90% or higher.
The level of the peptide-specific IgG in the serum was measured by ELISA. First, each peptide was dissolved in dimethyl sulfoxide (DMSO) and stored at −80° C. The peptide was diluted with 0.1 M sodium carbonate/sodium bicarbonate solution containing disuccinimidyl suberate (DSS) as a crosslinker. An ELISA plate was coated with 20 μg/well of peptide at 4° C. overnight. The wells were washed 3 times with 0.05% Tween 20/PBS (PBST), and the plate was blocked with Block Ace (registered trademark) and left overnight at 4° C. Plasma or serum samples were diluted in 1:100, 1:200 and 1:400 with 0.05% Tween 20/Block Ace, and 100 μl of each of the samples was added to each well. After the samples were incubated at 37° C. for 2 hours, the plate was washed 9 times with PBST, 100 μl of a 1:1000 diluted rabbit anti-human IgG (γ-chain specific) was added to each well, and incubated at 37° C. for 2 hours. The plate was washed 9 times with PBST, and 100 μl of 1:100 diluted mouse anti-rabbit IgG conjugated to a horseradish peroxidase-dextran polymer was added to each well, and then the plate was incubated at room temperature for 40 minutes. After the plate was washed, 100 μl of a tetramethylbenzidine substrate solution was added to each well. The reaction was stopped by the addition of 2.0 M phosphoric acid. The cutoff value was calculated as the mean±3 SD of the optical density values of the control obtained from the healthy donors.
The level of IgG that reacts with each of the 62 types of peptides was measured in the sera from 12 patients infected with HCV and 10 healthy donors (HDs) (Table 1).

Row | Substance | Healthy donors (n = 10) Positive n | HCV patients (n = 12) Positive n | Healthy donors (n = 10) Positive % | HCV patients (n = 12) Positive %
1 | 3 (RYAPACKPL; Hepatitis C Virus) [Peptide 3] | 1 | 12 | 10% | 100%
2 | 5 (HYAPRPCGI; Hepatitis C Virus) [Peptide 5] | 0 | 0 | 0% | 0%
3 | 6 (HYPCTVNFTI; Hepatitis C Virus) [Peptide 6] | 0 | 0 | 0% | 0%
4 | 8 (SFAIKWEYVL; Hepatitis C Virus) [Peptide 8] | 0 | 0 | 0% | 0%
5 | 9 (EYVLLLFLL; Hepatitis C Virus) [Peptide 9] | 0 | 0 | 0% | 0%
6 | 10 (AYALYGVWPL; Hepatitis C Virus) [Peptide 10] | 0 | 1 | 0% | 8%
7 | 11 (AYMSKAHGI; Hepatitis C Virus) [Peptide 11] | 0 | 6 | 0% | 50%
8 | 12 (HYAPRPCGI; Hepatitis C Virus) [Peptide 12] | 0 | 9 | 0% | 75%
9 | 13 (VYEAADMIM; Hepatitis C Virus) [Peptide 13] | 0 | 6 | 0% | 50%
10 | 15 (LFLARLIWWL; Hepatitis C Virus) [Peptide 15] | 0 | 0 | 0% | 0%
11 | 17 (QFKQKAIGL; Hepatitis C Virus) [Peptide 17] | 0 | 3 | 0% | 25%
12 | 19 (HYVQMALMKL; Hepatitis C Virus) [Peptide 19] | 0 | 1 | 0% | 8%
13 | 20 (TYVYDHLTPL; Hepatitis C Virus) [Peptide 20] | 0 | 0 | 0% | 0%
14 | 21 (HYVQMALMKL; Hepatitis C Virus) [Peptide 21] | 0 | 5 | 0% | 42%
15 | 22 (TYVYDHLTPL; Hepatitis C Virus) [Peptide 22] | 0 | 7 | 0% | 58%
16 | 23 (GYGAGVAGAL; Hepatitis C Virus) [Peptide 23] | 0 | 2 | 0% | 17%
17 | 24 (AYAAQGYKVL; Hepatitis C Virus) [Peptide 24] | 0 | 2 | 0% | 17%
18 | 25 (VYHGAGSKTL; Hepatitis C Virus) [Peptide 25] | 0 | 6 | 0% | 50%
